Experimental data taken from the NIST ThermoML archive (doi:10.1016/j.tca.2007.04.006).
± gives the expanded uncertainty stated by the source.

Test: molar heat capacity at constant pressure
Conditions: 101.33 kPa, Crystal, Vacuum adiabatic calorimetry

Nc1ccc([N+](=O)[O-])cn1 [2-amino-5-nitropyridine]
Conditions	molar heat capacity at constant pressure [J/K/mol]
80 K	52.33 ± 0.23
80.24 K	52.77 ± 0.23
84.16 K	54.56 ± 0.24
85 K	55.34 ± 0.25
87.02 K	56.26 ± 0.25
89.97 K	58.05 ± 0.26
90 K	58.25 ± 0.3
93.01 K	60.06 ± 0.3
95 K	61.07 ± 0.31
96.12 K	61.79 ± 0.31
99.15 K	63.52 ± 0.32
100 K	63.81 ± 0.32
102.11 K	65.16 ± 0.32
105 K	66.48 ± 0.33
105.16 K	66.83 ± 0.33
108.3 K	68.54 ± 0.33
110 K	69.08 ± 0.34
111.38 K	69.97 ± 0.34
114.4 K	71.41 ± 0.34
115 K	71.62 ± 0.34
117.37 K	72.83 ± 0.35
120 K	74.11 ± 0.35
120.43 K	74.39 ± 0.35
123.58 K	76.05 ± 0.36
125 K	76.55 ± 0.36
126.69 K	77.4 ± 0.37
129.75 K	78.85 ± 0.37
130 K	78.95 ± 0.37
132.77 K	80.21 ± 0.38
135 K	81.31 ± 0.38
135.75 K	81.69 ± 0.38
138.82 K	82.97 ± 0.39
140 K	83.65 ± 0.39
141.99 K	84.37 ± 0.39
145 K	85.96 ± 0.4
145.12 K	85.83 ± 0.4
148.21 K	87.22 ± 0.4
150 K	88.25 ± 0.41
151.26 K	88.71 ± 0.41
154.29 K	90.07 ± 0.41
155 K	90.53 ± 0.42
157.29 K	91.42 ± 0.42
160 K	92.79 ± 0.42
160.26 K	92.54 ± 0.42
163.32 K	93.8 ± 0.43
165 K	95.05 ± 0.43
166.47 K	95.36 ± 0.43
169.59 K	96.53 ± 0.44
170 K	97.31 ± 0.44
172.69 K	97.56 ± 0.44
175 K	99.56 ± 0.45
175.76 K	99.17 ± 0.45
178.81 K	100.66 ± 0.46
180 K	101.83 ± 0.46
181.83 K	101.77 ± 0.46
184.86 K	103.74 ± 0.47
185 K	104.09 ± 0.47
188 K	105.44 ± 0.47
190 K	106.38 ± 0.48
191.24 K	107.04 ± 0.48
194.48 K	108.11 ± 0.48
195 K	108.67 ± 0.49
197.71 K	110.07 ± 0.49
200 K	110.98 ± 0.49
200.95 K	111.83 ± 0.5
204.28 K	113.75 ± 0.51
205 K	113.31 ± 0.51
207.71 K	115.82 ± 0.51
210 K	115.66 ± 0.51
211.1 K	117.36 ± 0.52
214.45 K	118.48 ± 0.53
215 K	118.02 ± 0.52
217.75 K	119.73 ± 0.53
220 K	120.42 ± 0.53
220.98 K	121.46 ± 0.54
224.24 K	123.44 ± 0.54
225 K	122.83 ± 0.54
227.37 K	125.24 ± 0.55
230 K	125.27 ± 0.55
230.47 K	126.78 ± 0.56
233.53 K	128 ± 0.56
235 K	127.73 ± 0.56
236.7 K	129.18 ± 0.57
239.83 K	130.77 ± 0.57
240 K	130.22 ± 0.57
242.82 K	132.21 ± 0.58
245 K	132.74 ± 0.58
245.9 K	133.33 ± 0.58
249 K	134.92 ± 0.59
250 K	135.28 ± 0.59
252.08 K	136.09 ± 0.59
255 K	137.85 ± 0.6
255.25 K	137.55 ± 0.6
258.39 K	138.82 ± 0.6
260 K	140.44 ± 0.61
261.52 K	140.61 ± 0.61
264.62 K	142.67 ± 0.62
265 K	143.05 ± 0.62
267.71 K	144.57 ± 0.63
270 K	145.69 ± 0.63
270.79 K	146.14 ± 0.63
273.84 K	147.16 ± 0.64
275 K	148.34 ± 0.64
276.89 K	148.4 ± 0.64
279.92 K	149.95 ± 0.65
280 K	151.02 ± 0.65
282.94 K	151.57 ± 0.66
285 K	153.71 ± 0.66
286.05 K	152.95 ± 0.66
289.25 K	154.4 ± 0.67
290 K	156.42 ± 0.68
292.39 K	157.06 ± 0.68
295 K	159.13 ± 0.69
295.48 K	158.97 ± 0.69
298.15 K	160.85 ± 0.69
298.56 K	161.47 ± 0.69
300 K	161.86 ± 0.7
301.64 K	163.12 ± 0.7
304.71 K	164.66 ± 0.71
305 K	164.59 ± 0.71
307.77 K	165.74 ± 0.71
310 K	167.33 ± 0.72
310.83 K	167.2 ± 0.72
313.87 K	168.75 ± 0.72
315 K	170.06 ± 0.73
316.9 K	170.43 ± 0.73
319.93 K	172.15 ± 0.74
320 K	172.79 ± 0.74
323.02 K	174.56 ± 0.75
325 K	175.51 ± 0.75
326.19 K	175.6 ± 0.75
329.34 K	177.96 ± 0.76
330 K	178.22 ± 0.76
332.48 K	180.37 ± 0.77
335 K	180.91 ± 0.77
335.62 K	182.54 ± 0.78
338.77 K	183.77 ± 0.78
340 K	183.58 ± 0.78
341.9 K	185.05 ± 0.79
345 K	186.22 ± 0.79
345.02 K	186.91 ± 0.8
348.14 K	188.46 ± 0.8
350 K	188.82 ± 0.8
351.24 K	190.04 ± 0.81
354.33 K	191.86 ± 0.82
355 K	191.39 ± 0.81
357.42 K	193.4 ± 0.82
360 K	193.92 ± 0.82
360.58 K	194.97 ± 0.83
363.8 K	195.55 ± 0.83
365 K	196.39 ± 0.83
367.02 K	197.03 ± 0.84
370 K	198.81 ± 0.84
370.23 K	198.93 ± 0.84
373.42 K	200.16 ± 0.85
375 K	201.16 ± 0.85
376.61 K	202.18 ± 0.86
379.79 K	203.08 ± 0.86
380 K	203.44 ± 0.86
382.96 K	204.62 ± 0.87
385 K	205.64 ± 0.87
386.12 K	205.85 ± 0.87
389.27 K	207.34 ± 0.88
390 K	207.76 ± 0.88
392.45 K	208.4 ± 0.88
395 K	209.78 ± 0.89
395.48 K	209.36 ± 0.89
